This is an account of results in US5661151A, “Tetrahydrofuran antifungals” (Schering Corporation, priority 1995, dated 1997).

Data set [1] relates to Candida glabrata. The data set is described as follows: In vitro broth dilution MIC, Candida glabrata. It counts as cell-based. Particulars: 9 strains; for MIC90: Nakaseomyces glabratus, read-out: MIC 90 (Minimum Inhibitory Concentrations for 90% of the strains). (In broth dilution the organism is exposed to a series of concentrations in liquid medium.)
Method: (§1) The in vitro antifungal activity tests were performed via conventional broth dilution methods in Sabouraud dextrose broth ("SDB") medium and Eagles Minimum Essential Medium ("EMEM") against a large number of fungi. Minimum Inhibitory Concentrations ("MICs") were measured after 24, 48 and 72 hour tests. In many cases, Minimum Fungicidial Concentrations ("MFCS") were measured after 48 and 72 hours.
In data set [2] the test system is Dermatophytes. The data set is described as follows: In vitro broth dilution MFC, dermatophytes. Particulars: 6 strains. It counts as cell-based, T. rubrum, T. mentagrophytes, and T. tonsurans.
Method: as §1
The subject of data set [3] is Aspergillus. The data set is described as follows: In vitro broth dilution MIC, Aspergillus. Type of data set: cell-based, Aspergillus flavus, fumigatus and other species. Particulars: for MIC90: read-out: MIC 90 (Minimum Inhibitory Concentrations for 90% of the strains).
Method: as §1
For data set [4], the system named is Candida albicans. The data set is described as follows: In vitro broth dilution MIC, Candida albicans. Type of data set: cell-based. The settings on record: 26 strains; for MIC90: read-out: MIC 90 (Minimum Inhibitory Concentrations for 90% of the strains).
Method: as §1
Data set [5] deals with Cryptococcus neoformans. Nature of the data set: In vitro broth dilution MIC, Cryptococcus neoformans. It counts as cell-based. Particulars: 3 strains.
Method: as §1
Data set [6] concerns Candida krusei. Nature of the data set: In vitro broth dilution MFC, Candida krusei. Type of data set: cell-based. Particulars: 16 strains.
Method: as §1
For data set [7], the system named is Aspergillus. The data set is described as follows: In vitro broth dilution MFC, Aspergillus. It counts as cell-based, Aspergillus flavus, fumigatus and other species. Particulars: 37 strains.
Method: as §1
Data set [8] concerns Candida albicans. The settings on record: 26 strains.
Method: as §1
Data set [9] has as its system Candida krusei. Nature of the data set: In vitro broth dilution MIC, Candida krusei. It counts as cell-based. The settings on record: 16 strains.
In data set [10] the test system is Candida tropicalis & stellatoidea. Particulars: 5 strains.
Method: as §1
The test system is the same in data set [11]. The data set is described as follows: In vitro broth dilution MIC, Candida tropicalis & stellatoidea. It counts as cell-based. The settings on record: 5 strains.
Method: as §1
For data set [12], the system named is Cryptococcus neoformans. Nature of the data set: In vitro broth dilution MFC, Cryptococcus neoformans. Particulars: 3 strains. Type of data set: cell-based.
Method: as §1
Data set [13] deals with Dermatophytes. Nature of the data set: In vitro broth dilution MIC, dermatophytes. The settings on record: 6 strains. Type of data set: cell-based, T. rubrum, T. mentagrophytes, and T. tonsurans.
In data set [14] the test system is Candida glabrata. Nature of the data set: In vitro broth dilution MFC, Candida glabrata. The settings on record: 9 strains. Type of data set: cell-based.
Method: as §1
Data set [15] relates to cytochrome P-450 liver drug metabolizing enzymes. Nature of the data set: Induction of cytochrome P-450 liver drug metabolizing enzymes in an in vivo rat model. Particulars: after oral administration.
Data set [16] is described as follows: Serum levels, serum half lives and tissue distribution following oral dosing. It counts as in vivo, mice, rats, dogs and monkeys.

In brackets after ≈: the same amount, converted by molar mass. Where only a bound is given, the exact number is not on record here.

On to `CC[C@H]([C@H](C)O)n1ncn(-c2ccc(N3CCN(c4ccc(OC[C@@H]5CO[C@@](Cn6cncn6)(c6ccc(F)cc6F)C5)cc4)CC3)cc2)c1=O`, for which the MIC90 was 28.8 µg/mL (≈ 41.1 µM) with Candida glabrata [1]; 0.122 µg/mL (≈ 0.174 µM) in the data set on Aspergillus [3] (Aspergillus, 37 strains); 0.274 µg/mL (≈ 0.391 µM) in the data set on Candida albicans [4]. The “Percentage of strains with MFCs ≤1 mcg/ml” value is listed as 67 PERCENTAGE with Dermatophytes [2], 88 PERCENTAGE in the data set with Candida krusei [6] and 50 PERCENTAGE with Aspergillus [7]. For the same molecule, in the data set with Cryptococcus neoformans [5], the “MIC 90 (Minimum Inhibitory Concentrations for 90% of the strains)” value was “.05 MCG/ML”.

On to `OC(Cn1cncn1)(Cn1cncn1)c1ccc(F)cc1F` [FLZ, fluconazole], for which the “Percentage of strains with MICs ≤1 mcg/ml” value in the data set with Candida glabrata [1] stood at 0 PERCENTAGE; in the data set with Aspergillus [3] (Aspergillus, 37 strains), 0 PERCENTAGE; with Candida krusei [9], 0 PERCENTAGE; in the data set with Candida albicans [4], 100 PERCENTAGE; in data set [11] it was 100 PERCENTAGE; in the data set on Cryptococcus neoformans [5], 0 PERCENTAGE. The “Percentage of strains with MICs ≤1 mcg/ml” value with Dermatophytes [13] was 100 PERCENTAGE. Further, the MIC90 in the data set with Candida glabrata [1] worked out at 29.3 µg/mL (≈ 95.7 µM); with Aspergillus [3] (Aspergillus, 37 strains) it was 29.9 µg/mL (≈ 97.6 µM); in the data set on Candida krusei [9] (Pichia kudriavzevii, read-out: MIC 90 (Minimum Inhibitory Concentrations for 90% of the strains)) it was 29.9 µg/mL (≈ 97.6 µM); in the data set on Candida albicans [4], 0.887 µg/mL (≈ 2.9 µM); in data set [11] (Candida tropicalis, read-out: MIC 90 (Minimum Inhibitory Concentrations for 90% of the strains)) it was 0.917 µg/mL (≈ 2.99 µM); in the data set with Cryptococcus neoformans [5] (read-out: MIC 90 (Minimum Inhibitory Concentrations for 90% of the strains)) it was 25.9 µg/mL (≈ 84.6 µM). For the same molecule, the “Percentage of strains with MFCs ≤1 mcg/ml” value is 0 PERCENTAGE in the data set with Dermatophytes [2]; 100 PERCENTAGE in the data set on Candida albicans [8]; 100 PERCENTAGE in data set [10]; 0 PERCENTAGE in the data set on Candida krusei [6]; 0 PERCENTAGE in the data set on Cryptococcus neoformans [12]; 0 PERCENTAGE in the data set with Aspergillus [7]. For the same molecule, in the data set on Candida glabrata [14], the “Percentage of strains with MFCs ≤1 mcg/ml” value worked out at 0 PERCENTAGE. For the same molecule, the MIC in the data set on Aspergillus [3] (SDB, 37 species of Aspergillus, read-out: geometric mean MICs) is no less than 32 µg/mL.

Consider `CCC(C(C)O)n1ncn(-c2ccc(N3CCN(c4ccc(OCC5COC(Cn6cncn6)(c6ccc(F)cc6F)C5)cc4)CC3)cc2)c1=O` (centres unmarked) [drawing 21], for which, in [15], the “induction of various cytochrome P-450 liver drug metabolizing enzymes” value is “not inducers”. For the same molecule, the serum half lives result in data set [16] (following O.D. dosing) is “very long serum half lives”. The “serum levels compared to azoles of similar structure” value in data set [16] (mice, rats, dogs and monkeys, oral dosing with a methyl cellulose formulation) is “consistently higher serum levels”.

On to `CCC(C(C)O)n1ncn(-c2ccc(N3CCN(c4ccc(OCC5COC(Cn6cncn6)(c6ccc(F)cc6F)C5)cc4)CC3)cc2)c1=O` (centres unmarked) [drawing 23], for which the “Percentage of strains with MFCs ≤1 mcg/ml” value with Dermatophytes [2] was 83 PERCENTAGE; with Candida krusei [6], 94 PERCENTAGE; with Aspergillus [7] it was 62 PERCENTAGE. Besides, in the data set with Cryptococcus neoformans [5], the “MIC 90 (Minimum Inhibitory Concentrations for 90% of the strains)” value is “.007 MCG/ML”.

Take `CCC(C(C)O)n1ncn(-c2ccc(N3CCN(c4ccc(OCC5COC(Cn6cncn6)(c6ccc(F)cc6F)C5)cc4)CC3)cc2)c1=O` (centres unmarked) [drawing 24]: the “Percentage of strains with MFCs ≤1 mcg/ml” value in the data set with Dermatophytes [2] was determined as 100 PERCENTAGE; in the data set on Candida krusei [6] it was 100 PERCENTAGE; in the data set with Aspergillus [7], 89 PERCENTAGE.
